Source: US20140248212A1, “NON-IMMUNOGENIC POSITRON EMISSION TOMOGRAPHY REPORTER GENE SYSTEMS” (THE REGENTS OF THE UNIVERSITY OF CALIFORNIA, priority 2011, published 2014)
Values belong to the molecule of their own block, whether it stands above or below them.

Assays:
[1] = Biodistribution of PET reporter probes in mice (microPET/CT); type: in vivo, C57/BL6 mice; conditions: for biodistribution in mice: C57/BL6 mice, FIG. 25B, no retention in normal tissues except clearance routes (GI tract, bladder)
Procedure: To identify candidate PRPs, eight nucleoside analogs (FIG. 7A) were synthesized that were amenable to ^18F labeling (the first criterion for PRPs). To identify PRP candidates with rapid clearance from normal tissues and low overall background (second criterion for PRGs), biodistribution studies in mice were performed. It was observed that natural (D) nucleosides had higher background than non-natural (L) nucleoside analogs. […] The next step was to identify a human nucleoside kinase that phosphorylates L-[^18F]FMAU and L-[^18F]FEAU, and can be converted into a new PRG that matches four criteria:
Initially, a group of nucleoside analogs amenable to fluorine-18 labeling were identified. These PET tracers, 5 of which were novel, were then screened to determine their biodistribution in C57/BL6 mice (n=3 for each PET tracer) through dynamic microPET scans. […] Rational design is utilized to introduce mutations into human nucleoside kinase thymidine kinase 2 (TK2) to improve the affinity of the kinase for the top candidate probe. The sensitivity and specificity of the novel PET reporter probe/gene pair was then determined in vitro and in vivo using a murine cancer model.
Animal studies were approved and carried out according to specific guidelines. C57/BL6 mice were injected with the indicated probe and underwent micro-PET/CT analyses at 1- and 3-h post probe injection (Inveon, Siemens Medical Solutions USA Inc.; microCAT; Imtek Inc.). For tumor imaging studies, SCID mice were injected subcutaneously on day −7 in the right and left flanks with 1×10^6 L1210-PRG-expressing cells in 50% v/v phosphate-buffered saline and 50% v/v Matrigel™ (BD Biosciences). For imaging experiments, mice were kept warm and under gas anesthesia (2% v/v isoflurane) and were injected intravenously with 200 μCi of ^18F-labeled probes. A 3-h interval was allowed between probe administration and microPET/CT scanning Static microPET images were acquired for 600 s. Image data were evaluated in three-dimensional histograms and reconstructed with a zoom factor of 2.1 using three-dimensional ordered set expectation maximization (OSEM) with 2 iterations followed by MAP (maximum a posteriori) reconstruction with 18 iterations (beta=0.1). Images were analyzed using OsiriX Imaging Software Version 3.8.

[2] = system: TK1; test: [3H]dT uptake inhibition assay (competition with thymidine for TK1); type: cell-based
Source text: FIG. 6 provides a graph that illustrates data regarding an assay to determine whether candidate probes compete with thymidine for TK1.
Further evaluations can be carried out to precisely assess the affinity of these candidate probes for purified recombinant TK1.

[3] = Microsomal stability (glucuronidation conditions); type: in vitro ADME; conditions: glucuronidation conditions (data not shown)
Source text: Regarding condition (d), one has obtained the microsomal stability profiles for 3 out of 4 compounds (FCU, FBU and FddUrd using the glucuronidation conditions).

[4] = system: Baf-3 cells; test: Test of mutant htk2 reporter genes in Baf-3 cells; type: cell-based
Source text: The sensitivity of the described mutant htk2 imaging reporter genes can be evaluated through cell culture assays and PET imaging in mouse tumor models. […] Further tests regarding the effect of expressing these reporter genes on various cells can be used to determine other potential targets. […] Several enhanced htk2 mutant reporter genes have been designed and tested. Though the examples herein describe different probes and investigate the L probes mainly in mice, other mammals and in particular, humans are also within the scope of the invention. Silico models can be used to derive additional enhanced mutants from human htk2.

[5] = target: T1, TK2-N93D/L109F (Homo sapiens, UniProt O00142, L109F/N93D); test: Kinetic analyses of recombinant TK2 (NADH-dependent enzyme coupled assay), TK2-N93D/L109F; type: biochemical
T1 construct: hexahistidine (N, cleaved yes); SUMO (N, cleaved yes); made in house; host or cells: Escherichia coli BL21 (DE3) C41, modified pET14b
T1 sequence (O00142 51-265 N93D/L109F): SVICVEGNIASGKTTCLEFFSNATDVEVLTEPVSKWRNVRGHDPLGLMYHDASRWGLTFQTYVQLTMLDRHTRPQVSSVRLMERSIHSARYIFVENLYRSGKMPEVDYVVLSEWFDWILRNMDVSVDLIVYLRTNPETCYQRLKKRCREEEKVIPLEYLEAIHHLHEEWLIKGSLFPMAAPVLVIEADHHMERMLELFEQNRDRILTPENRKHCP
Procedure: FIG. 34 provides a table that illustrates the kinetics of the phosphorylation of D and L-nucleosides by the TK2 mutants. Kinase assays were performed with recombinant protein with 200 μM of the listed substrate.

[6] = target: T2, TK2-N93D (Homo sapiens, UniProt O00142, N93D); test: Kinetic analyses of recombinant TK2 (NADH-dependent enzyme coupled assay), TK2-N93D; conditions: 37° C., 1 mM ATP
T2 sequence (O00142 51-265 N93D): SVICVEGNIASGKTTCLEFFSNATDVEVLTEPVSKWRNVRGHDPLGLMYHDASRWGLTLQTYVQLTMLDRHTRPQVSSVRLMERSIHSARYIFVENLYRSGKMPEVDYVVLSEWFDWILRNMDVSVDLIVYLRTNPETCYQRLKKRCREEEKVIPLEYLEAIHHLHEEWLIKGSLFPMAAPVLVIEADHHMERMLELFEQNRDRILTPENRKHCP
Procedure: (§1) A NADH-dependent enzyme coupled assay (see, e.g. Agarwal, K. C., et al. (1978) Methods Enzymol. 51, 483-490) was used. Using a Cary UV spectrophotometer, measurements were made in triplicate at 37° C. in a buffer containing 100 mM Tris, pH 7.5, 100 mM KCl, 5 mM MgCl2, and 1 mM ATP. For data in which kobs is given, a single nucleoside concentration of 200 μM was used. For data in which both Km and kcat are given, the nucleoside concentration was varied between 15 and 500 μM. TK2 concentration in the cuvette was 400 nM. Data were fit to the Michaelis-Menten equation using SigmaPlot. […] Therefore, all of the kinetic data using the Michaelis-Menten equation without the Hill coefficient is presented.

[7] = target: T3, TK2-L109F (Homo sapiens, UniProt O00142, L109F); test: Kinetic analyses of recombinant TK2 (NADH-dependent enzyme coupled assay), TK2-L109F; conditions: 37° C., 1 mM ATP
T3 sequence (O00142 51-265 L109F): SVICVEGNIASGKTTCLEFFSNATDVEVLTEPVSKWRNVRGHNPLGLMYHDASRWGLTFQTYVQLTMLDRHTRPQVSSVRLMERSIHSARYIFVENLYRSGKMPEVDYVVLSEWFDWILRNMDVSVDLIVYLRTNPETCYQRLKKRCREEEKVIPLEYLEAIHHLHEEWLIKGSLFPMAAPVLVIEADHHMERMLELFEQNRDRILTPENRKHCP
Procedure: as §1

[8] = system: L1210 cells; test: Effect of PRG overexpression on growth and dNTP pools of L1210 cells; type: cell-based, murine
Procedure: FIG. 9 provides graphs of data that illustrate how the overexpression of sr39tk affects cell growth and intracellular dNTP pools. L1210 cells were engineered to express: TK2-N93D (▪), TK2 (▴), HSV1-sr39tk (▾), and control vector eYFP (♦). Various graphs show the growth of the L1210 cells in (A) regular media and (B) regular media supplemented with 10 μM thymidine (dT). Other graphs show total cellular dNTP pools (measured by LC-MS) in cells grown in (C) regular media and (D) regular media supplemented with 10 μM dT; (*=below limit of detection).
L1210 cells transduced to overexpress the listed genes were grown in RPMI media (+/−10 μM dT) for 48 hours. The cells were then harvested and pyrimidine nucleotide pools were obtained via […].
To overcome the negative feedback limitation of TK2, a point mutation-N93D, was engineered. The work done by Piskur and colleagues on the structurally related Drosophila melanogaster deoxyribonucleoside kinase (see, e.g. Welin, M., et al. FEBS J 272:3733-3742, 2005) led one to predict that the N93D mutation would reduce the feedback inhibition of TK2 by dTTP. […] We then determined whether the enhanced resistance to feedback inhibition translates into improved TK2-N93D catalytic activity towards the L-[^18F]FMAU substrate. […]

biodistribution in mice [1]: excellent biodistribution
Molecule: O=c1[nH]c(=O)n([C@H]2C[C@H]([18F])[C@@H](CO)O2)cc1Cl [^18F-FCU, 3′-[^18F]fluoro-2′,3′-dideoxy-5-chlorouridine]
phosphorylation by endogenous mammalian thymidine kinases [2]: cannot be phosphorylated
microsomal stability over time [3]: only FBU showed decrease stability over time

overall background (biodistribution) ([1]; candidate 18F nucleoside analog probes in mice, FIG. 7B): lowest overall background
Molecule: CCc1cn([C@H]2O[C@@H](CO)[C@H](O)[C@H]2F)c(=O)[nH]c1=O [L-[^18F]FEAU]
test of reporter system with probe [4]: successfully tested

Molecule: O=c1[nH]c(=O)n([C@H]2C[C@H]([18F])[C@@H](CO)O2)cc1F [^18F-FFU, 3′-[^18F]fluoro-2′,3′-dideoxy-5-fluorouridine]
biodistribution in mice [1]: excellent biodistribution
phosphorylation by endogenous mammalian thymidine kinases [2]: cannot be phosphorylated

kobs as percentage of that of TK2 ([5]; 200 μM substrate): 62%
Molecule: Nc1ccn([C@H]2C[C@H](O)[C@@H](CO)O2)c(=O)n1 [dC, deoxycytidine]

increase of kcat compared with TK2 ([5]; 37° C., 1 mM ATP): 54%
decrease of kcat relative to WT TK2 [6]: 48%
change of Km by the L109F mutation [7]: decrease in the Km
Molecule: Cc1cn([C@@H]2C[C@@H](O)[C@H](CO)O2)c(=O)[nH]c1=O [L-dT]

Molecule: O=c1[nH]c(=O)n([C@H]2C[C@H]([18F])[C@@H](CO)O2)cc1Br [^18F-FBU, 3′-[^18F]fluoro-2′,3′-dideoxy-5-bromouridine]
biodistribution in mice [1]: excellent biodistribution
phosphorylation by endogenous mammalian thymidine kinases [2]: cannot be phosphorylated
microsomal stability over time [3]: decrease stability over time

decrease of kcat compared with TK2 ([5]; 37° C., 1 mM ATP): 49%
decrease of kcat relative to WT TK2 [6]: 77%
decrease of kcat/Km compared with WT TK2 [6]: 60%
change of Km by the L109F mutation [7]: decrease in the Km
Molecule: Cc1cn([C@H]2C[C@H](O)[C@@H](CO)O2)c(=O)[nH]c1=O [D-dT, D-thymidine]

Molecule: O=c1ccn([C@H]2C[C@H]([18F])[C@@H](CO)O2)c(=O)[nH]1 [^18F-FddUrd, 3′-[^18F]fluoro-2′,3′-dideoxy-uridine]
biodistribution in mice [1]: excellent biodistribution
phosphorylation by endogenous mammalian thymidine kinases [2]: cannot be phosphorylated
microsomal stability over time [3]: only FBU showed decrease stability over time

B1: TK2-N93D: truncated human thymidine kinase 2 with N93D point mutation, PET reporter gene product (SEQ ID NO: 3) (protein, listed as Homo sapiens)
chain: MSVICVEGNIASGKTTCLEFFSNATDVEVLTEPVSKWRNVRGHDPLGLMYHDASRWGLTLQTYVQLTMLDRHTRPQVSSVRLMERSIHSARYIFVENLYRSGKMPEVDYVVLSEWFDWILRNMDVSVDLIVYLRTNPETCYQRLKKRCREEEKVIPLEYLEAIHHLHEEWLIKGSLFPMAAPVLVIEADHHMERMLELFEQNRDRILTPENRKHCP
growth rate of transduced cells [8]: did not affect
intracellular dNTP pools [8]: did not affect
